Series [1] relates to Prot.mirab. L 93. The series is described as follows: agar serial dilution test. Format: cell-based, Proteus mirabilis. The note with it: Proteus mirabilis.
Series [2] has as its system Staph.aureus A 2000. The series is described as follows: agar serial dilution test. The format is cell-based, Staphylococcus aureus. The note with it: Staphylococcus aureus, A2000, 24 h, agar serial dilution, 24 hours, 37° C.; read-out: minimal inhibitory concentration (MIC).
For series [3], the system named is Salm.dubl. P 43. The series is described as follows: agar serial dilution test. The format is cell-based, Salmonella dublin. The note with it: Salmonella enterica; agar serial dilution, 24 hours, 37° C.; read-out: minimal inhibitory concentration (MIC).
Series [4] deals with Salm.typh. R 127. The series is described as follows: micro serial dilution test. Format: cell-based. The note with it: micro serial dilution (in brackets), about 18 hours, 30° C. or 37° C.; read-out: minimal inhibitory concentration (MIC). An excerpt: Two drops of a stock solution of the test compound (antibiotic) in a known concentration were brought into the first hole of a test plate with 9 numbered holes with a sterile Pasteur pipette. After rinsing this pipette three times with a physiological NaCl-solution, two drops of a stock solution of the test organism in a culture medium were brought in all the holes except for hole 8. In the first hole, the solution of the tested compound had been half diluted, then by stirring the liquid in the first hole and adding two drops of this mixture to the second hole and so on until hole 8, dilutions of the test compound solution were obtained in geometrical progression. The hole 9 contained no antibiotic and served for checking the growth of the testogranism in a blank medium. The test plate was incubated at 30° C. or 37° C. for about 18 hours.

The test system of series [5] is Pseud.aerug. Wyeth A 1058. Kind of series: agar serial dilution test. The note with it: agar serial dilution, 24 hours, 37° C.; read-out: minimal inhibitory concentration (MIC). The format is cell-based.
The test system of series [6] is Klebsiella pneumoniae. Kind of series: protection test. The format is in vivo. The note with it: ip.
In series [7] the test system is Strep.haem. A 266. Kind of series: agar serial dilution test. Format: cell-based, Streptococcus haemolyticus. The note with it: Streptococcus; agar serial dilution, 24 hours, 37° C.; read-out: minimal inhibitory concentration (MIC).
For series [8], the system named is penicillin resistant Staphylococcus aureus strain. Kind of series: protection test. Format: in vivo. The note with it: sc. The source says: The compound may preferably be used parenterally.
In series [9] the test system is Esch.coli U 20. Kind of series: agar serial dilution test. Format: cell-based, Escherichia coli. The note with it: Escherichia coli.
For series [10], the system named is Proteus rettgeri. The series is described as follows: protection test. The format is in vivo. The note with it: Providencia rettgeri, sc.
In series [11] the test system is Kleb.pneum. A 809. Kind of series: micro serial dilution test. The note with it: Klebsiella pneumoniae; micro serial dilution (in brackets), about 18 hours, 30° C. or 37° C.; read-out: minimal inhibitory concentration (MIC). Format: cell-based.
Series [12] has as its system Dipl.pneum. L 54. The series is described as follows: agar serial dilution test. The format is cell-based, Diplococcus pneumoniae. The note with it: Streptococcus pneumoniae; agar serial dilution, 24 hours, 37° C.; read-out: minimal inhibitory concentration (MIC).
Series [13] relates to Pseud.aerug. H 10. Kind of series: agar serial dilution test. The format is cell-based. The note with it: agar serial dilution, 24 hours, 37° C.; read-out: minimal inhibitory concentration (MIC).
Series [14] concerns Staph.aureus A 321. Kind of series: agar serial dilution test. The note with it: Staphylococcus aureus, A321, 24 h, agar serial dilution, 24 hours, 37° C.; read-out: minimal inhibitory concentration (MIC). The format is cell-based, Staphylococcus aureus.
The test system of series [15] is Prot.morg. 2241. The series is described as follows: agar serial dilution test. The format is cell-based. The note with it: 24 h, agar serial dilution, 24 hours, 37° C.; read-out: minimal inhibitory concentration (MIC).
For series [16], the system named is Staph. aureus pen.resistant. The series is described as follows: protection test. The format is in vivo. The note with it: Staphylococcus aureus, sc.
Series [17] concerns Pseud.aerug. 2396. Kind of series: agar serial dilution test. Format: cell-based. The note with it: agar serial dilution, 24 hours, 37° C.; read-out: minimal inhibitory concentration (MIC).
Series [18] is described as follows: acute toxicity in mice. The note with it: mouse, in vivo, ip; mice (Swiss), one intraperitoneal administration. The procedure: (a) For sodium 7-[(3-methyl-1,2,4-oxadiazol-5-yl)-acetamido]-cephalosporanate (as prepared in Example 10), the acute toxicity was determined in mice (Swiss) with one intraperitoneal administration. The LD50 appeared to be >6000 mg/kg (Cephalotin-LD50 >6000 mg/kg).

For series [19], the system named is Strep. faec. L 80. Kind of series: agar serial dilution test. The format is cell-based, Streptococcus faecalis. The note with it: Enterococcus faecalis; agar serial dilution, 24 hours, 37° C.; read-out: minimal inhibitory concentration (MIC).
Series [20] concerns Staph.aureus A 355. The series is described as follows: agar serial dilution test. The note with it: Staphylococcus aureus, A355, 24 h, read-out: minimal inhibitory concentration (MIC), agar serial dilution, 24 hours, 37° C.; penicillinase-producing strain.
In series [21] the test system is Prot.mirab. H 3. Kind of series: agar serial dilution test. The note with it: Proteus mirabilis. The format is cell-based, Proteus mirabilis.
The test system of series [22] is Shig.equir. T 3. The series is described as follows: agar serial dilution test. Format: cell-based. The note with it: 37° C.; for MIC: 24 h, read-out: minimal inhibitory concentration (MIC).
Series [23] deals with Kleb.pneum. A 809. Kind of series: agar serial dilution test. Format: cell-based, Klebsiella pneumoniae. The note with it: Klebsiella pneumoniae; agar serial dilution, 24 hours, 37° C.; read-out: minimal inhibitory concentration (MIC).
Series [24] has as its system Bruc.melit. A 488. The series is described as follows: microbe, parasite or virus in culture. Format: cell-based. The note with it: Brucella melitensis, 24 h, read-out: minimal inhibitory concentration (MIC).
Series [25] has as its system Bac.Subt.ATCC 6633. Kind of series: agar serial dilution test. Format: cell-based, Bacillus subtilis. The note with it: Bacillus subtilis, ATCC6633, 24 h, agar serial dilution, 24 hours, 37° C.; read-out: minimal inhibitory concentration (MIC).
The subject of series [26] is Prot.rettg. A 821. The series is described as follows: agar serial dilution test. Format: cell-based, Proteus rettgeri. The note with it: Providencia rettgeri, 24 h, read-out: minimal inhibitory concentration (MIC).
For series [27], the system named is Escherichia coli. Kind of series: protection test. Format: in vivo. The note with it: ip.
For series [28], the system named is Past.multo. A 723. The series is described as follows: agar serial dilution test. Format: cell-based, Pasteurella multocida. The note with it: Pasteurella multocida; agar serial dilution, 24 hours, 37° C.; read-out: minimal inhibitory concentration (MIC).
In series [29] the test system is Staph.aureus A 2001. Kind of series: micro serial dilution test. The format is cell-based, Staphylococcus aureus. The note with it: Staphylococcus aureus, A2001, 18 h, micro serial dilution (in brackets), about 18 hours, 30° C. or 37° C.; read-out: minimal inhibitory concentration (MIC).
In series [30] the test system is Staph.aureus A 2001. The series is described as follows: agar serial dilution test. The note with it: Staphylococcus aureus, A2001, 24 h, agar serial dilution, 24 hours, 37° C.; read-out: minimal inhibitory concentration (MIC). The format is cell-based, Staphylococcus aureus.
Series [31] relates to Prot.mirab. A 1200. The series is described as follows: agar serial dilution test. The note with it: agar serial dilution, 24 hours, 37° C. The format is cell-based, Proteus mirabilis.
Series [32] is described as follows: tests with mice, blood levels and urine activity.
Series [33] relates to Staph.aureus A 2000. The series is described as follows: micro serial dilution test. The format is cell-based, Staphylococcus aureus. The note with it: Staphylococcus aureus, A2000, 18 h, micro serial dilution (in brackets), about 18 hours, 30° C. or 37° C.; read-out: minimal inhibitory concentration (MIC).
Series [34] concerns Salm.typh. R 127. Kind of series: agar serial dilution test. The format is cell-based. The note with it: 24 h, 37° C., read-out: minimal inhibitory concentration (MIC).
The test system of series [35] is Staph.aureus A 355. The series is described as follows: micro serial dilution test. Format: cell-based, Staphylococcus aureus. The note with it: Staphylococcus aureus, A355; micro serial dilution (in brackets), about 18 hours, 30° C. or 37° C.; penicillinase-producing strain; read-out: minimal inhibitory concentration (MIC).
Series [36] is described as follows: stability in refluxing slightly moist diethyl ether (thin-layer chromatography). Format: physicochemical. The note with it: refluxed 24 hours, read-out: destruction to 5-methyl-1,2,4-oxadiazol-3-yl-acetic acid. How it is done: Stability of 1,2,4-oxadiazol-3,5-diyl-bisacetic acid: A small sample was dissolved in slightly moist diethyl ether and the solution was refluxed for 24 hours.

[37] abbreviates: agar serial dilution, 24 hours, 37° C., read-out: minimal inhibitory concentration (MIC).
Where [38] appears, read: 24 h, read-out: minimal inhibitory concentration (MIC), agar serial dilution, 24 hours, 37° C.

Values after ≈ are worked out from the molar mass of the structure shown. Read-outs that look alike come from different tables or passages of the source. Where only a bound is given, the exact number is not on record here.

With `CC(=O)OCC1=C(C(=O)O)N2C(=O)[C@@H](NC(=O)Cc3cccs3)[C@H]2SC1` [Cephalotin, reference compound], the MIC is 0.6 µg/mL (≈ 1.51 µM) in series [1] (setting [37]); 0.5 µg/mL (≈ 1.26 µM) in [2]; 1.5 µg/mL (≈ 3.78 µM) in series [3]; 3 µg/mL (≈ 7.57 µM) in series [4]; > 100 µg/mL in series [5]; 0.06 µg/mL (≈ 0.151 µM) in [7]. The MIC in [9] (U20, agar serial dilution, 24 hours, 37° C., read-out: minimal inhibitory concentration (MIC)) is 3 µg/mL (≈ 7.57 µM); in [11], 0.37 µg/mL (≈ 0.933 µM); in [12], 0.5 µg/mL (≈ 1.26 µM); in series [13] it was > 100 µg/mL; in [14], 0.5 µg/mL (≈ 1.26 µM); in series [15], > 100 µg/mL. For the same compound, the MIC in [17] is > 100 µg/mL; in [19], 25 µg/mL (≈ 63.1 µM); in series [20], 0.5 µg/mL (≈ 1.26 µM); in series [21] (setting [38]), 12.5 µg/mL (≈ 31.5 µM); in [22], 1.5 µg/mL (≈ 3.78 µM); in series [23] it was 0.7 µg/mL (≈ 1.77 µM). The MIC was determined as 6 µg/mL (≈ 15.1 µM) in series [24], 0.12 µg/mL (≈ 0.303 µM) in series [25], 12.5 µg/mL (≈ 31.5 µM) in series [26] and 0.7 µg/mL (≈ 1.77 µM) in series [28]. Besides, the ED50 was 0.8 mg/kg in [6]; 1.3 mg/kg in series [8]; 4.34 mg/kg in series [10]; 37.6 mg/kg in series [16]; > 300 mg/kg in [27]. In addition, the LD50 in series [18] was > 6000 mg/kg.

Turning to `COCc1noc(CC(=O)N[C@@H]2C(=O)N3C(C(=O)O)=C(COC(C)=O)CS[C@H]23)n1` [Example 37, 7-[3-methoxymethyl-1,2,4-oxadiazol-5-yl-acetamido]-cephalosporanic acid], the MIC in series [1] (setting [38]) is 12.5 µg/mL (≈ 29.3 µM); in series [1] (setting [37]) it was 6 µg/mL (≈ 14.1 µM); in series [2] it was 1.5 µg/mL (≈ 3.52 µM); in series [3] it was 3 µg/mL (≈ 7.04 µM); in series [5], > 100 µg/mL; in [7], 0.12 µg/mL (≈ 0.281 µM). In addition, the MIC in series [9] (U20, 24 h, read-out: minimal inhibitory concentration (MIC), agar serial dilution, 24 hours, 37° C.) was 12.5 µg/mL (≈ 29.3 µM); in series [12], 0.75 µg/mL (≈ 1.76 µM); in [29], 0.45 µg/mL (≈ 1.06 µM); in [30], 0.75 µg/mL (≈ 1.76 µM); in [13], > 100 µg/mL; in [14], 0.5 µg/mL (≈ 1.17 µM). Also, the MIC in [15] was > 100 µg/mL; in series [17], > 100 µg/mL; in series [31] (Proteus mirabilis, 24 h, read-out: minimal inhibitory concentration (MIC)), 50 µg/mL (≈ 117 µM); in series [19], 50 µg/mL (≈ 117 µM); in series [20], 1.5 µg/mL (≈ 3.52 µM); in [21] (setting [37]) it was 25 µg/mL (≈ 58.6 µM). Besides, the MIC in series [33] came out at 0.6 µg/mL (≈ 1.41 µM); in [22], 3 µg/mL (≈ 7.04 µM); in series [34], 12.5 µg/mL (≈ 29.3 µM); in series [35], 0.9 µg/mL (≈ 2.11 µM); in [23], 3 µg/mL (≈ 7.04 µM); in [25], 0.12 µg/mL (≈ 0.281 µM). For the same compound, the MIC amounted to 3 µg/mL (≈ 7.04 µM) in series [26] (agar serial dilution, 24 hours, 37° C.); 12.5 µg/mL (≈ 29.3 µM) in [26]; 1 µg/mL (≈ 2.35 µM) in series [28]. Also, the ED50 in series [8] (protection test, subcutanal administration, read-out: ED50) is 1.2 mg/kg. Further, the “minimal inhibitory concentration (MIC)” value in [31] was 100 µg/mL (≈ 235 µM); in [22] (24 hours) it was 6 µg/mL (≈ 14.1 µM). Also, in [32], the “blood levels (in words)” value is given as “good blood levels”. In addition, the “urine activity against pathogenic germs (in words)” value in [32] is “strong urine activity against pathogenic germs”.

`O=C(O)Cc1noc(CC(=O)O)n1` [Example 39, 1,2,4-oxadiazole-3,5-diyl-bisacetic acid]: the degraded at 24 h in series [36] was < 5%.

The ED50 is the dose at which the effect has come halfway, by size or by number of responders. As usually defined, the LD50 is the dose at which mortality reaches 50%. Read a low LD50 as a more toxic substance.

These data come from patent US4160829A, “Antibacterial 1,2,4-oxadiazolylacetamido cephalosporins” (Gist-Brocades N.V., priority 1972, dated 1979).
